Laboratory results as given in patent EP0324390A2, “Nigericin derivatives, method for their preparation, compositions containing them and use of these compositions” (priority 1988, dated 1989).
≈ marks a conversion by molar mass, not a printed value.

Tests used:
Test in all cases: Agar dilution test according to Lorian (antibacterial activity)
Format in all cases: cell-based
[1] = system: Strept. pyogenes (77 A)
Procedure: (§1) Die antibakterielle Wirksamkeit der erfindungsgemäßen Verbindungen wurde im Agar-Verdünnungstest nach Lorian (Antibiotics in Laboratory Medicine, Williams & Wilkins, Baltimore/London, 1980) bestimmt. Dabei wurden die Präparate in einer geometrischen Verdünnungsreihe mit dem Faktor 2 in Müller Hinton Agar verdünnt. Eine Petrischale enthielt nur Müller Hinton Agar und diente zur Kontrolle des Bakterienwachstums. Die Petrischalen wurden dann mit einem Denley-Multipoint-Inokulator, welcher 0,6 ul einer 1 : 100 verdünnten 18-Stunden-Kultur der Testbakterien übertrug, mit den entsprechenden Testbakterien beimpft. Nach 16 bis 18 Stunden Inkubation bei 37^. C wurden die Petrischalen makroskopisch auf Bakterienwachstum untersucht.
(§2) Die niedrigste Konzentration der erfindungsgemäßen Verbindungen, welche das Bakterienwachstum noch vollständig verhinderte, wurde als MIC (Minimum Inhibitory Concentration) angenommen.
(§3) In Tabelle 4 ist die Wirkung (Angabe des MIC in µg/ml) von verschiedenen erfindungsgemäßen Verbindungen gegen folgende Bakterien aufgeführt: • Staph. aureus (SG 511), Staph. aureus (285), Staph. aureus (503), Strept. pyogenes (308 A), Strept pyogenes (77 A), Strept. faecium (D).

[2] = system: Staph. aureus (285)
Procedure: as §1, §2, §3

[3] = system: Strept. faecium (D)
Procedure: as §1, §2, §3

[4] = system: Strept. pyogenes (308 A)
Procedure: as §1, §2, §3

[5] = system: Staph. aureus (SG 511)
Procedure: as §1, §2, §3

[6] = system: Staph. aureus (503)
Procedure: as §1, §2, §3

[7] = Müller Hinton Agar, 16 to 18 h at 37 C, lowest concentration fully preventing growth

Structure (SMILES) | MIC [1, 7] | MIC [2, 7] | MIC [3, 7] | MIC [4, 7] | MIC [5, 7] | MIC [6, 7] | MIC ([1]; Streptococcus pyogenes) [µg/mL] | MIC ([2]; Staphylococcus aureus) [µg/mL] | MIC ([3]; Enterococcus faecium) [µg/mL] | MIC ([4]; Streptococcus pyogenes) [µg/mL] | MIC ([5]; Staphylococcus aureus) [µg/mL] | MIC ([6]; Staphylococcus aureus) [µg/mL]
CCOC1(CO)OC(C2CC(C)C(C3(C)CCC(C4(C)CC(C)C5(OC(CC6CCC(C)C(C(C)C(=O)O)O6)CC(OC)C5C)O4)O3)O2)C(C)CC1C (stereo not drawn) [Beispiel 17] | 0,098 µg/ml | 1,56 µg/ml | 1,56 µg/ml | 0,098 µg/ml | 1,56 µg/ml | 0,78 µg/ml |  |  |  |  |  | 
CCCCCCCCCCCCCCCCCCCCCC(=O)OCC1(O)OC(C2CC(C)C(C3(C)CCC(C4(C)CC(C)C5(OC(CC6CCC(C)C(C(C)C(=O)O)O6)CC(OC)C5C)O4)O3)O2)C(C)CC1C (stereo not drawn) [Beispiel 30] |  |  |  |  |  |  | 25 (≈ 23.9 µM) | 100 (≈ 95.5 µM) | 100 (≈ 95.5 µM) | 25 (≈ 23.9 µM) | 100 (≈ 95.5 µM) | 50 (≈ 47.7 µM)
COC1CC(CC2CCC(C)C(C(C)C(=O)O)O2)OC2(OC(C)(C3CCC(C)(C4OC(C5OC(O)(COC(=O)c6ccccc6)C(C)CC5C)CC4C)O3)CC2C)C1C (stereo not drawn) [Beispiel 6] | 0,013 µg/ml | 0,391 µg/ml | 0,391 µg/ml | 0,013 µg/ml | 0,098 µg/ml | 0,098 µg/ml |  |  |  |  |  | 
COC1CC(CC2CCC(C)C(C(C)C(=O)O)O2)OC2(OC(C)(C3CCC(C)(C4OC(C5OC(O)(COC(=O)C=C(C)C(=O)O)C(C)CC5C)CC4C)O3)CC2C)C1C (stereo not drawn) [Beispiel 22] |  |  |  |  |  |  | 0.78 (≈ 0.932 µM) | 6.25 (≈ 7.47 µM) | 6.25 (≈ 7.47 µM) | 0.78 (≈ 0.932 µM) | 6.25 (≈ 7.47 µM) | 6.25 (≈ 7.47 µM)
COC1CC(CC2CCC(C)C(C(C)C(=O)O)O2)OC2(OC(C)(C3CCC(C)(C4OC(C5OC(O)(COC(=O)CCC(=O)O)C(C)CC5C)CC4C)O3)CC2C)C1C (stereo not drawn) [Beispiel 11] | 0,025 µg/ml | 0,195 µg/ml | 0,391 µg/ml | 0,025 µg/ml | 0,391 µg/ml | 0,098 µg/ml |  |  |  |  |  | 
COC1CC(CC2CCC(C)C(C(C)C(=O)O)O2)OC2(OC(C)(C3CCC(C)(C4OC(C5OC(O)(COC(=O)c6c(Br)c(Br)c(Br)c(Br)c6C(=O)O)C(C)CC5C)CC4C)O3)CC2C)C1C (stereo not drawn) [Beispiel 29] |  |  |  |  |  |  |  | 3.13 (≈ 2.63 µM) | 3.13 (≈ 2.63 µM) |  | 1.56 (≈ 1.31 µM) | 1.56 (≈ 1.31 µM)
COC1CC(CC2CCC(C)C(C(C)C(=O)O)O2)OC2(OC(C)(C3CCC(C)(C4OC(C5OC(O)(COC(=O)c6ccco6)C(C)CC5C)CC4C)O3)CC2C)C1C (stereo not drawn) [Beispiel 8] | 0,013 µg/ml | 0,391 µg/ml | 0,391 µg/ml | 0,013 µg/ml | 0,195 µg/ml | 0,195 µg/ml |  |  |  |  |  | 
COC1CC(CC2CCC(C)C(C(C)C(=O)O)O2)OC2(OC(C)(C3CCC(C)(C4OC(C5OC(O)(COC(=O)c6cccs6)C(C)CC5C)CC4C)O3)CC2C)C1C (stereo not drawn) [Beispiel 9] | 0,007 µg/ml | 0,195 µg/ml | 0,195 µg/ml | 0,007 µg/ml | 0,049 µg/ml | 0,049 µg/ml |  |  |  |  |  | 
COC1CC(CC2CCC(C)C(C(C)C(=O)O)O2)OC2(OC(C)(C3CCC(C)(C4OC(C5OC(O)(COC(C)=O)C(C)CC5C)CC4C)O3)CC2C)C1C (stereo not drawn) [Beispiel 5] | 0,098 µg/ml | 0,391 µg/ml | 0,781 µg/ml | 0,098 µg/ml | 0,391 µg/ml | 0,391 µg/ml |  |  |  |  |  | 
COC1CC(CC2CCC(C)C(C(C)C(=O)O)O2)OC2(OC(C)(C3CCC(C)(C4OC(C5OC(O)(COS(C)(=O)=O)C(C)CC5C)CC4C)O3)CC2C)C1C (stereo not drawn) [Beispiel 2] | 0,013 µg/ml | 0,049 µg/ml | 0,195 µg/ml | 0,004 µg/ml | 0,098 µg/ml | 0,049 µg/ml |  |  |  |  |  | 
COC1CC(CC2CCC(C)C(C(C)C(=O)O)O2)OC2(OC(C)(C3CCC(C)(C4OC(C5OC(O)(COC(=O)Cc6ccccc6)C(C)CC5C)CC4C)O3)CC2C)C1C (stereo not drawn) [Beispiel 7] | 0,004 µg/ml | 0,391 µg/ml | 0,391 µg/ml | 0,004 µg/ml | 0,195 µg/ml | 0,195 µg/ml |  |  |  |  |  | 
COC1CC(CC2CCC(C)C(C(C)C(=O)O)O2)OC2(OC(C)(C3CCC(C)(C4OC(C5OC(O)(COC(=O)Nc6ccccc6)C(C)CC5C)CC4C)O3)CC2C)C1C (stereo not drawn) [Beispiel 12] | 0,098 µg/ml | 3,13 µg/ml | 1,56 µg/ml | 0,098 µg/ml | 0,781 µg/ml | 0,78 µg/ml |  |  |  |  |  | 
COC1CC(CC2CCC(C)C(C(C)C(=O)O)O2)OC2(OC(C)(C3CCC(C)(C4OC(C5OC(O)(COC(=O)C=CC(=O)O)C(C)CC5C)CC4C)O3)CC2C)C1C (stereo not drawn) [Beispiel 23] |  |  |  |  |  |  |  |  | 0.39 (≈ 0.474 µM) |  |  | 
COC1CC(CC2CCC(C)C(C(C)C(=O)[O-])O2)OC2(OC(C)(C3CCC(C)(C4OC(C5OC(O)(CO)C(C)CC5C)CC4C)O3)CC2C)C1C.[K+] (stereo not drawn) [Beispiel 34] | < 0,002 µg/ml | 0,025 µg/ml | 0,098 µg/ml | < 0,002 µg/ml | 0,025 µg/ml | < 0,002 µg/ml |  |  |  |  |  | 
COC1CC(CC2CCC(C)C(C(C)C(=O)O)O2)OC2(OC(C)(C3CCC(C)(C4OC(C5OC(CO)(OC)C(C)CC5C)CC4C)O3)CC2C)C1C (stereo not drawn) [Beispiel 16] | 0,39 µg/ml | 1,56 µg/ml | 3,13 µg/ml | 0,39 µg/ml | 1,56 µg/ml | 1,56 µg/ml |  |  |  |  |  | 
COC1CC(CC2CCC(C)C(C(C)C(=O)O)O2)OC2(OC(C)(C3CCC(C)(C4OC(C5OC(O)(COS(=O)(=O)O)C(C)CC5C)CC4C)O3)CC2C)C1C (stereo not drawn) [Beispiel 15] | 0,78 µg/ml | 1,56 µg/ml | 3,13 µg/ml | 1,56 µg/ml | 1,56 µg/ml | 0,78 µg/ml |  |  |  |  |  | 
COC1CC(CC2CCC(C)C(C(C)C(=O)O)O2)OC2(OC(C)(C3CCC(C)(C4OC(C5OC(O)(COC(=O)COc6ccccc6)C(C)CC5C)CC4C)O3)CC2C)C1C (stereo not drawn) [Beispiel 3] | 0,049 µg/ml | 0,391 µg/ml | 0,781 µg/ml | 0,049 µg/ml | 0,391 µg/ml | 0,391 µg/ml |  |  |  |  |  | 
COC1CC(CC2CCC(C)C(C(C)C(=O)O)O2)OC2(OC(C)(C3CCC(C)(C4OC(C5OC(O)(COC(=O)CCOc6ccccc6)C(C)CC5C)CC4C)O3)CC2C)C1C (stereo not drawn) [Beispiel 4] | 0,098 µg/ml | 1,56 µg/ml | 1,56 µg/ml | 0,098 µg/ml | 0,78 µg/ml | 0,78 µg/ml |  |  |  |  |  | 
COC1CC(CC2CCC(C)C(C(C)C(=O)[O-])O2)OC2(OC(C)(C3CCC(C)(C4OC(C5OC(O)(COC(=O)CCC(=O)[O-])C(C)CC5C)CC4C)O3)CC2C)C1C.[Mg+2] (stereo not drawn) [Beispiel 37] | 0,007 µg/ml | 0,098 µg/ml | 0,098 µg/ml | 0,007 µg/ml | 0,098 µg/ml | 0,049 µg/ml |  |  |  |  |  | 
COC1CC(CC2CCC(C)C(C(C)C(=O)O)O2)OC2(OC(C)(C3CCC(C)(C4OC(C5OC(O)(COC(=O)C(C)C)C(C)CC5C)CC4C)O3)CC2C)C1C (stereo not drawn) [Beispiel 27] |  |  |  |  |  |  |  | 0.39 (≈ 0.491 µM) | > 100 |  | 0.39 (≈ 0.491 µM) | 0.19 (≈ 0.239 µM)
COC1CC(CC2CCC(C)C(C(C)C(=O)O)O2)OC2(OC(C)(C3CCC(C)(C4OC(C5OC(O)(COC(=O)c6ccccc6C(=O)O)C(C)CC5C)CC4C)O3)CC2C)C1C (stereo not drawn) [Beispiel 31] |  |  |  |  |  |  |  | 0.78 (≈ 0.893 µM) |  |  | 0.78 (≈ 0.893 µM) | 0.78 (≈ 0.893 µM)
CCCCCCCCCCCC(=O)OCC1(O)OC(C2CC(C)C(C3(C)CCC(C4(C)CC(C)C5(OC(CC6CCC(C)C(C(C)C(=O)O)O6)CC(OC)C5C)O4)O3)O2)C(C)CC1C (stereo not drawn) [Beispiel 10] | 0,781 µg/ml | 6,25 µg/ml | 6,25 µg/ml | 0,781 µg/ml | 6,25 µg/ml | 3,13 µg/ml |  |  |  |  |  | 
COC1CC(CC2CCC(C)C(C(C)C(=O)O)O2)OC2(OC(C)(C3CCC(C)(C4OC(C5OC(COS(C)(=O)=O)(OC)C(C)CC5C)CC4C)O3)CC2C)C1C (stereo not drawn) [Beispiel 20] |  |  |  |  |  |  | 6.25 (≈ 7.65 µM) | 25 (≈ 30.6 µM) | 25 (≈ 30.6 µM) | 6.25 (≈ 7.65 µM) | 25 (≈ 30.6 µM) | 12.5 (≈ 15.3 µM)
COC1CC(CC2CCC(C)C(C(C)C(=O)O)O2)OC2(OC(C)(C3CCC(C)(C4OC(C5OC(O)(COC(=O)NCc6ccccc6)C(C)CC5C)CC4C)O3)CC2C)C1C (stereo not drawn) [Beispiel 13] | 0,39 µg/ml | 6,25 µg/ml | 12,5 µg/ml | 0,78 µg/ml | 3,13 µg/ml | 3,13 µg/ml |  |  |  |  |  | 
COC1CC(CC2CCC(C)C(C(C)C(=O)O)O2)OC2(OC(C)(C3CCC(C)(C4OC(C5OC(O)(COC(=O)Nc6ccc(Cl)cc6)C(C)CC5C)CC4C)O3)CC2C)C1C (stereo not drawn) [Beispiel 14] | 12,5 µg/ml | 100,0 µg/ml | 100,0 µg/ml | 25,0 µg/ml | 100,0 µg/ml | 50,0 µg/ml |  |  |  |  |  | 
